This note sets out measurements from patent publication US10344025B2, “GLS1 inhibitors for treating disease” (Board of Regents, The University of Texas System, priority 2014, dated 2019).

The structures appear in SMILES notation.

In test [1] the target is purified recombinant human GAC (GLS1) (Homo sapiens (Human), UniProt O94925). The experiment in a line: GLS1 Enzymatic Activity Assay (dual-coupled enzymatic assay, resorufin/Amplex UltraRed readout).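 Further: glutamate from GAC coupled via glutamate oxidase and peroxidase to resorufin, read as fluorescence (ex 530, em 590 nm) kinetically or at 20 min, four-parameter logistic IC50 fit.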 The test is classed as biochemical.
In the next test the test system is A549 cells. The experiment in a line: Proliferation Assay (A549 viability, Cell Titer Fluor, 72 hours). The note with it: Homo sapiens. The test is classed as cell-based. The method in brief: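 A549 cells seeded at 1000 cells/well, rested 24 h, then exposed to compound in 0.5% DMSO for 72 h at 37 °C. Viability read by Cell Titer Fluor fluorescence; IC50 from four-parameter logistic fit.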

Chain of purified recombinant human GAC (GLS1) (O94925 other isoform, or with tags, fused parts or gaps): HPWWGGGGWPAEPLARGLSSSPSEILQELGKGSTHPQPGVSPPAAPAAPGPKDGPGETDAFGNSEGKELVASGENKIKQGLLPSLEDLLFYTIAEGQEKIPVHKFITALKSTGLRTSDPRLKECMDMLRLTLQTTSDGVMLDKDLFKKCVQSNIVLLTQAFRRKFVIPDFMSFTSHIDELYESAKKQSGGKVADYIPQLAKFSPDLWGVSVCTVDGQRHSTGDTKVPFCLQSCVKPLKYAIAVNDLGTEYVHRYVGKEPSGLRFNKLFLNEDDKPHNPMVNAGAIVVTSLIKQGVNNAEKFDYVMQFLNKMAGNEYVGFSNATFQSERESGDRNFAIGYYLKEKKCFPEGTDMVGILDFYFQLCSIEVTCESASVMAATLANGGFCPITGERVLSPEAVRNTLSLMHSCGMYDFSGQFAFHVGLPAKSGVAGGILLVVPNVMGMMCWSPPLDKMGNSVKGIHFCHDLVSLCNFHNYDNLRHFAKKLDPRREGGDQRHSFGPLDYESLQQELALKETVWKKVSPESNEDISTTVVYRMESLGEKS

In the case of `O=C(NCc1cc(C(F)(F)F)ccn1)c1cn(CC(F)CCc2nnc(C(=O)NCc3cc(C(F)(F)F)ccn3)s2)nn1` (stereo not shown) [Example 520, 5-{3-fluoro-4-[4-({[4-(trifluoromethyl)pyridin-2-yl]methyl}carbamoyl)-1H-1,2,3-triazol-1-yl]butyl}-N-{[4-(trifluoromethyl)pyridin-2-yl]methyl}-1,3,4-thiadiazole-2-carboxamide], the IC50 in test [1] is < 100 nM. The EC50 in the test on A549 cells (A549, 72 h) is < 100 nM.

`NC(=O)c1nnc(CCC(F)Cn2cc(C(=O)NCc3cccc(OC(F)(F)F)c3)nn2)s1` (stereo not shown) [Example 521, 5-{3-fluoro-4-[4-({[3-(trifluoromethoxy)phenyl]methyl}carbamoyl)-1H-1,2,3-triazol-1-yl]butyl}-1,3,4-thiadiazole-2-carboxamide]: the IC50 in test [1] was in the range of 100 to 500 nM. The EC50 in the test with A549 cells (A549, 72 h) was 100 to 500 nM.

Consider `CCNC(=O)c1nnc(CCC(F)Cn2cc(C(=O)NCc3cccc(OC(F)(F)F)c3)nn2)s1` (stereo not shown) [Example 522, N-ethyl-5-{3-fluoro-4-[4-({[3-(trifluoromethoxy)phenyl]methyl}carbamoyl)-1H-1,2,3-triazol-1-yl]butyl}-1,3,4-thiadiazole-2-carboxamide], for which the IC50 in test [1] is < 100 nM. Moreover, the EC50 with A549 cells (A549, 72 h) lay in the range of 100 to 500 nM.

On to `COCCNC(=O)c1nnc(CCC(F)Cn2cc(C(=O)NCc3cccc(OC(F)(F)F)c3)nn2)s1` (stereo not shown) [Example 523, 5-{3-fluoro-4-[4-({[3-(trifluoromethoxy)phenyl]methyl}carbamoyl)-1H-1,2,3-triazol-1-yl]butyl}-N-(2-methoxyethyl)-1,3,4-thiadiazole-2-carboxamide], for which the IC50 in test [1] was 100 to 500 nM. Besides, the EC50 in the test with A549 cells (A549, 72 h) was 500 to 5000 nM.

Turning to `CNC(=O)c1cn(CCC(F)Cn2cc(NC(=O)Cc3cccc(OC(F)(F)F)c3)nn2)nn1` (stereo not shown) [Example 524, 1-[3-fluoro-4-(4-{2-[3-(trifluoromethoxy)phenyl]acetamido}-1H-1,2,3-triazol-1-yl)butyl]-N-methyl-1H-1,2,3-triazole-4-carboxamide], the IC50 in test [1] was < 100 nM. Moreover, in the test with A549 cells (A549, 72 h), the EC50 lay in the range of 100 to 500 nM.

In the case of `CNC(=O)c1cn(CCC(F)Cn2cc(NC(=O)Cc3cc(OC(F)(F)F)ccc3F)nn2)nn1` (stereo not shown) [Example 525, 1-[3-fluoro-4-(4-{2-[2-fluoro-5-(trifluoromethoxy)phenyl]acetamido}-1H-1,2,3-triazol-1-yl)butyl]-N-methyl-1H-1,2,3-triazole-4-carboxamide], the concentration for half-maximal inhibition (IC50) in test [1] was < 100 nM. This compound also gave an EC50 in the test with A549 cells (A549, 72 h) of 100 to 500 nM.

Turning to `NC(=O)c1cn(CC(F)CCc2nnc(NC(=O)Cc3cccc(OC(F)(F)F)c3)s2)nn1` (stereo not shown) [Example 530, 1-[2-fluoro-4-(5-{2-[3-(trifluoromethoxy)phenyl]acetamido}-1,3,4-thiadiazol-2-yl)butyl]-1H-1,2,3-triazole-4-carboxamide], the IC50 in test [1] was < 100 nM. The compound also came in with an EC50 in the test with A549 cells (A549, 72 h) of 500 to 5000 nM.

As to `CCNC(=O)c1cn(CC(F)CCc2nnc(NC(=O)Cc3cccc(OC(F)(F)F)c3)s2)nn1` (stereo not shown) [Example 531, N-ethyl-1-[2-fluoro-4-(5-{2-[3-(trifluoromethoxy)phenyl]acetamido}-1,3,4-thiadiazol-2-yl)butyl]-1H-1,2,3-triazole-4-carboxamide], the IC50 in test [1] was < 100 nM. In the test with A549 cells (A549, 72 h), the concentration giving a half-maximal response (EC50) lay in the range of 100 to 500 nM.

Consider `COCCNC(=O)c1cn(CC(F)CCc2nnc(NC(=O)Cc3cccc(OC(F)(F)F)c3)s2)nn1` (stereo not shown) [Example 532, 1-[2-fluoro-4-(5-{2-[3-(trifluoromethoxy)phenyl]acetamido}-1,3,4-thiadiazol-2-yl)butyl]-N-(2-methoxyethyl)-1H-1,2,3-triazole-4-carboxamide], for which the IC50 in test [1] is < 100 nM. In the test on A549 cells (A549, 72 h), this compound gave an EC50 of 100 to 500 nM.

`O=C(Cc1cccc(OC(F)(F)F)c1)Nc1nnc(CCC(F)Cn2cc(C(=O)NCc3ccccn3)nn2)s1` (stereo not shown) [Example 533, 1-[2-fluoro-4-(5-{2-[3-(trifluoromethoxy)phenyl]acetamido}-1,3,4-thiadiazol-2-yl)butyl]-N-(pyridin-2-ylmethyl)-1H-1,2,3-triazole-4-carboxamide]: the IC50 in test [1] is < 100 nM. The EC50 with A549 cells (A549, 72 h) was < 100 nM.

With `O=C(Cc1cccc(OC(F)(F)F)c1)Nc1nnc(CCC(F)Cn2cc(C(=O)NC3CC3)nn2)s1` (stereo not shown) [Example 534, N-cyclopropyl-1-[2-fluoro-4-(5-{2-[3-(trifluoromethoxy)phenyl]acetamido}-1,3,4-thiadiazol-2-yl)butyl]-1H-1,2,3-triazole-4-carboxamide], in test [1], the IC50 was < 100 nM. This compound also showed an EC50 in the test with A549 cells (A549, 72 h) of 100 to 500 nM.

For the compound `O=C(Cc1cccc(OC(F)(F)F)c1)Nc1nnc(CCC(F)Cn2cc(C(=O)NCC3CC3)nn2)s1` (stereo not shown) [Example 535, N-(cyclopropylmethyl)-1-[2-fluoro-4-(5-{2-[3-(trifluoromethoxy)phenyl]acetamido}-1,3,4-thiadiazol-2-yl)butyl]-1H-1,2,3-triazole-4-carboxamide], the IC50 in test [1] is < 100 nM. The compound further had an EC50 with A549 cells (A549, 72 h) of 100 to 500 nM.

As for `O=C(Cc1cccc(OC(F)(F)F)c1)Nc1nnc(CCC(F)Cn2cc(C(=O)NCC(F)(F)F)nn2)s1` (stereo not shown) [Example 536, 1-[2-fluoro-4-(5-{2-[3-(trifluoromethoxy)phenyl]acetamido}-1,3,4-thiadiazol-2-yl)butyl]-N-(2,2,2-trifluoroethyl)-1H-1,2,3-triazole-4-carboxamide], the IC50 in test [1] is < 100 nM. The compound further gave an EC50 in the test on A549 cells (A549, 72 h) of 100 to 500 nM.

`O=C(Cc1cccc(OC(F)(F)F)c1)Nc1nnc(CCC(F)Cn2cc(C(=O)NCc3ncccc3F)nn2)s1` (stereo not shown) [Example 537, 1-[2-fluoro-4-(5-{2-[3-(trifluoromethoxy)phenyl]acetamido}-1,3,4-thiadiazol-2-yl)butyl]-N-[(3-fluoropyridin-2-yl)methyl]-1H-1,2,3-triazole-4-carboxamide]: the IC50 in test [1] was < 100 nM. The EC50 in the test with A549 cells (A549, 72 h) was in the range of 100 to 500 nM.

On to `CNC(=O)c1cn(CC(F)CCn2cc(NC(=O)Cc3cccc(OC(F)(F)F)c3)nn2)nn1` (stereo not shown) [Example 538, 1-[2-fluoro-4-(4-{2-[3-(trifluoromethoxy)phenyl]acetamido}-1H-1,2,3-triazol-1-yl)butyl]-N-methyl-1H-1,2,3-triazole-4-carboxamide], for which the IC50 in test [1] was < 100 nM. In the test on A549 cells (A549, 72 h), this compound returned an EC50 of 100 to 500 nM.

Take `CNC(=O)c1cn(CC(F)CCn2cc(NC(=O)Cc3cc(OC(F)(F)F)ccc3F)nn2)nn1` (stereo not shown) [Example 539, 1-[2-fluoro-4-(4-{2-[2-fluoro-5-(trifluoromethoxy)phenyl]acetamido}-1H-1,2,3-triazol-1-yl)butyl]-N-methyl-1H-1,2,3-triazole-4-carboxamide]: the IC50 in test [1] is < 100 nM. This compound also returned an EC50 in the test on A549 cells (A549, 72 h) of 100 to 500 nM.

Consider `O=C(Cc1ccccn1)Nc1nnc(CCC(F)Cn2cc(C(=O)NCc3cc(C(F)(F)F)ccn3)nn2)s1` (stereo not shown) [Example 540, 1-(2-fluoro-4-(5-(2-(pyridin-2-yl)acetamido)-1,3,4-thiadiazol-2-yl)butyl)-N-((4-(trifluoromethyl)pyridin-2-yl)methyl)-1H-1,2,3-triazole-4-carboxamide], for which the IC50 in test [1] is < 100 nM. In the test with A549 cells, the EC50 was < 100 nM.

Take `CNC(=O)c1cn(CCCCc2ccc(NC(=O)Cc3cccc(Br)c3)nn2)nn1` [Example 542, 1-(4-{6-[2-(3-bromophenyl)acetamido]pyridazin-3-yl}butyl)-N-methyl-1H-1,2,3-triazole-4-carboxamide]: the IC50 in test [1] was < 100 nM. In the test on A549 cells (A549, 72 h), this compound gave an EC50 of 100 to 500 nM.

With `CNC(=O)c1cn(CCCCc2ccc(NC(=O)Cc3cccc(S(C)(=O)=O)c3)nn2)nn1` [Example 543, 1-(4-{6-[2-(3-methanesulfonylphenyl)acetamido]pyridazin-3-yl}butyl)-N-methyl-1H-1,2,3-triazole-4-carboxamide], the IC50 in test [1] was < 100 nM. In addition, the EC50 with A549 cells (A549, 72 h) lay in the range of 500 to 5000 nM.

`CNC(=O)c1cn(CCCCc2ccc(NC(=O)Cc3cccc(-c4ccccn4)c3)nn2)nn1` [Example 545, N-methyl-1-[4-(6-{2-[3-(pyridin-2-yl)phenyl]acetamido}pyridazin-3-yl)butyl]-1H-1,2,3-triazole-4-carboxamide]: in test [1], the IC50 is < 100 nM. This compound had an EC50 in the test with A549 cells (A549, 72 h) of 100 to 500 nM.

Consider `CNC(=O)c1cn(CCCCc2ccc(NC(=O)CC3CCOCC3)nn2)nn1` [Example 547, N-methyl-1-(4-{6-[2-(oxan-4-yl)acetamido]pyridazin-3-yl}butyl)-1H-1,2,3-triazole-4-carboxamide], for which the IC50 in test [1] is 100 to 500 nM. In the test on A549 cells (A549, 72 h), this compound gave an EC50 of 500 to 5000 nM.

As to `CNC(=O)c1cn(CCCCc2ccc(NC(=O)CC3CCCC3)nn2)nn1` [Example 548, 1-{4-[6-(2-cyclopentylacetamido)pyridazin-3-yl]butyl}-N-methyl-1H-1,2,3-triazole-4-carboxamide], in test [1], the IC50 fell in the range of 100 to 500 nM. Further, the EC50 in the test on A549 cells (A549, 72 h) lay in the range of 500 to 5000 nM.

On to `O=C(Cc1cccc(OC(F)(F)F)c1)Nc1ccc(CCCCn2cc(C(=O)NCC3COC3)nn2)nn1` [Example 550, N-(oxetan-3-ylmethyl)-1-[4-(6-{2-[3-(trifluoromethoxy)phenyl]acetamido}pyridazin-3-yl)butyl]-1H-1,2,3-triazole-4-carboxamide], for which the IC50 in test [1] is < 100 nM. For the same compound, the EC50 in the test with A549 cells (A549, 72 h) is 100 to 500 nM.

Consider `O=C(Cc1cccc(OC(F)(F)F)c1)Nc1ccc(CCCCn2cc(C(=O)NCC(CO)CO)nn2)nn1` [Example 552, N-[3-hydroxy-2-(hydroxymethyl)propyl]-1-[4-(6-{2-[3-(trifluoromethoxy)phenyl]acetamido}pyridazin-3-yl)butyl]-1H-1,2,3-triazole-4-carboxamide], for which the IC50 in test [1] lay within 500 to 5000 nM. In addition, the EC50 in the test with A549 cells (A549, 72 h) was > 5000 nM.

Consider `O=C(Cc1ccccn1)Nc1nnc(CCCCn2cc(C(=O)NCc3cccc(OC(F)(F)F)c3)nn2)s1` [Example 553, 1-(4-{5-[2-(pyridin-2-yl)acetamido]-1,3,4-thiadiazol-2-yl}butyl)-N-{[3-(trifluoromethoxy)phenyl]methyl}-1H-1,2,3-triazole-4-carboxamide], for which, in test [1], the IC50 is < 100 nM. Also, the EC50 in the test with A549 cells (A549, 72 h) is < 100 nM.

For the compound `O=C(Cc1ccccn1)Nc1nnc(CCCCn2cc(C(=O)NCc3cc(OC(F)(F)F)ccc3F)nn2)s1` [Example 554, N-{[2-fluoro-5-(trifluoromethoxy)phenyl]methyl}-1-(4-{5-[2-(pyridin-2-yl)acetamido]-1,3,4-thiadiazol-2-yl}butyl)-1H-1,2,3-triazole-4-carboxamide], in test [1], the half-maximal inhibitory concentration (IC50) is < 100 nM. Further, the EC50 in the test on A549 cells (A549, 72 h) is < 100 nM.

The IC50 is the concentration needed to halve the response being measured. In general, EC50 refers to the concentration that produces a half-maximal response. Low values mean greater potency, high ones weaker potency.
